Patent US7208521B2, “Selective inhibitors of the urokinase plasminogen activator” (Wilex AG, priority 1999, dated 2007)
pKi: −log10 of the molar value. Like-named read-outs stand apart in the source and are kept apart here.

What was measured:
[1] = tested on: mouse breast cancer; settings: cited from earlier work
[2] = tested on: rat prostate cancer; settings: syngeneic rat prostate cancer; cited from earlier work
[3] = molecular target: F Xa (Homo sapiens, UniProt P00742); test: In-vitro protease inhibition, chromogenic substrate, Dixon Ki; format: biochemical
F Xa, sequence (P00742 235-488 limits assumed): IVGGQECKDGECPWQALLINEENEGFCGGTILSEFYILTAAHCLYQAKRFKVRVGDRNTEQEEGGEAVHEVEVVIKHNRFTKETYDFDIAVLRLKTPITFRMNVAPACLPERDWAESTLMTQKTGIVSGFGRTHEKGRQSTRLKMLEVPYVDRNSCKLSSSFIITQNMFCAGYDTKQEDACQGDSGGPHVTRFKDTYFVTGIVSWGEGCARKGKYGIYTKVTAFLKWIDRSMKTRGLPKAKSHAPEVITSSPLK
F Xa, sequence (P00742 41-179 partner limits assumed): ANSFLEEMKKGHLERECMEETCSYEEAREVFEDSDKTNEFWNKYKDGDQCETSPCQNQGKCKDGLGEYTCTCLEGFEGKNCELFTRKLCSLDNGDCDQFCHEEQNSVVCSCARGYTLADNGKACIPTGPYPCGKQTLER
Method: (§1) The uPA inhibitor activity was determined by incubating 200 μl of Tris buffer (0.05 mol/l, containing the inhibitor, 0.154 mol/l NaCl, 5% ethanol, pH 8.0), 25 μl of substrate (Pefachrome UK or BZ-β-Ala-Gly-Arg-pNA in H2O; Pentapharm Ltd, Basle, Switzerland) and 50 μl of sc-urokinase (Ribosepharm GmbH, Haan, Germany) or another corresponding protease at 25° C. After 3 min, the reaction was interrupted by adding 25 μl of acetic acid (50%) and absorbance at 405 nm was determined by means of a microplate reader (MR 5000, Dynatech, Denkendorf, Germany). The Ki values were determined by linear regression according to Dixon by means of a computer program. The Ki values are the average of at least three determinations, and the standard deviation was below 25%.

[4] = molecular target: Plasmin (Homo sapiens, UniProt P00747); test: as above; format: biochemical; settings: 25° C., pH 8.0
Plasmin, sequence (P00747 581-810 limits assumed, species assumed): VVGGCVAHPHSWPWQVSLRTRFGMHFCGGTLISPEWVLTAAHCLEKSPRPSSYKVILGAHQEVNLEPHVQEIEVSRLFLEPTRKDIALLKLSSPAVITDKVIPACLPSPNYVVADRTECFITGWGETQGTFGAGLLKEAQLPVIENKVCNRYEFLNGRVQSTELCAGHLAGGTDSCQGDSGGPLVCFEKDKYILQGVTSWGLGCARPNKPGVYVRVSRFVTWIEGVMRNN
Plasmin, sequence (P00747 97-580 partner limits assumed, species assumed): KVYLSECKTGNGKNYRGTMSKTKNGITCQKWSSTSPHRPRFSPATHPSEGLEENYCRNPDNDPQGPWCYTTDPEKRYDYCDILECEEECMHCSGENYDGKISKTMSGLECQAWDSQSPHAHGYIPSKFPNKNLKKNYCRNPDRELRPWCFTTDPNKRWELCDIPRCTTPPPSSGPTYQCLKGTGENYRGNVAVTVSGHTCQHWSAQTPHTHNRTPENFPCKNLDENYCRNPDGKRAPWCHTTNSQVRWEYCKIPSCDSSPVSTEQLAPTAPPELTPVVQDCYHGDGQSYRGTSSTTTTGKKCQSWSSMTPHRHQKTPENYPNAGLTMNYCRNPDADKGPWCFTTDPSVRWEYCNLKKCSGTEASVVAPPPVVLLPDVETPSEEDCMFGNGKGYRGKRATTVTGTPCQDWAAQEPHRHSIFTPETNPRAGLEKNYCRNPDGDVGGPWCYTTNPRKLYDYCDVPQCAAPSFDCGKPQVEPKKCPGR
Method: as §1

[5] = molecular target: Thrombin (Homo sapiens, UniProt P00734); test: as above; format: biochemical
Method: as §1

[6] = molecular target: T1, Trypsin (UniProt P00760); test: as above; format: biochemical
T1 sequence (P00760 1-246): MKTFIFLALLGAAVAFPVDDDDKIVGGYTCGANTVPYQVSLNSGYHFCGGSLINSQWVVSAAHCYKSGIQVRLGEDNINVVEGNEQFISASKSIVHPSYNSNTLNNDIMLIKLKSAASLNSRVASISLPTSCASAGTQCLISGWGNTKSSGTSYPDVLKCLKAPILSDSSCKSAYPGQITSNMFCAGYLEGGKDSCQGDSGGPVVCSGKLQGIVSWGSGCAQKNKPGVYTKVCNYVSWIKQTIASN
Method: The Ki values were determined by linear regression according to Dixon by means of a computer program.

[7] = molecular target: T2, sc-urokinase (uPA) (Homo sapiens, UniProt P00749); test: In-vitro inhibition of urokinase, chromogenic substrate, Dixon Ki; format: biochemical
T2 construct: purchased Ribosepharm GmbH, Haan, Germany
Method: as §1

[8] = tested on: rat breast adenocarcinoma cells; settings: after i.v. inoculation of tumor cells; cited from earlier work
[9] = tested on: DU145 tumors (a prostate adenocarcinoma cell line); settings: oral, daily dose of 125 to 250 mg/kg/day; cited from earlier work
[10] = 25° C., pH 8.0, read-out: Ki F Xa
[11] = 25° C., pH 8.0, read-out: Ki Thrombin
[12] = 25° C., pH 8.0; read-out: Ki Trypsin
[13] = 25° C., pH 8.0, average of at least three determinations, read-out: Ki uPA
[14] = read-out: Ki Trypsin; 25° C., pH 8.0
[15] = Ki uPA, 25° C., pH 8.0, average of at least three determinations

SMILES | pKi [3, 10] | pKi [4] | pKi [5, 11] | pKi [6, 12] | pKi [7, 13] | other results
N=C(N)c1cc2c(I)cccc2s1 [B428, 4-iodobenzo[b]thiophene-2-carboxamidine] |  |  |  |  |  | primary tumor growth ([1]; administered together with the antiestrogen tamoxifen): further decrease in primary tumor growth; tumor growth and metastases formation ([1]; syngeneic mouse breast cancer): decrease of tumor growth and metastases formation; tumor growth and metastases formation [2]: decrease of tumor growth and metastases formation
CC(C)(C)OC(=O)NCc1ccc(NC(=N)N)cc1 [ST 242] | < 3.00 | < 3.00 | < 3.00 | < 3.00 | 4.44 | 
N=C(N)Nc1ccc(N)cc1 [ST 267] | < 3.00 | < 3.00 | < 3.00 | < 3.00 | < 3.00 | 
CCOC(=O)NCc1ccc(NC(=N)N)cc1 [ST 269] | < 3.00 | < 3.00 | < 3.00 | < 3.00 | 4.57 | 
CC(C)(C)COC(=O)NCc1ccc(NC(=N)N)cc1 [ST 271] | < 3.00 | < 3.00 | < 3.00 | < 3.00 | 4.29 | 
CC(C)OC(=O)NCc1ccc(NC(=N)N)cc1 [ST 273] | < 3.00 | 3.89 | < 3.00 | < 3.00 | 4.28 | 
N=C(N)Nc1ccc(CNC(=O)OC23C[C@H]4C[C@@H](C2)C[C@@H](C3)C4)cc1 [ST 274] | < 3.00 | < 3.00 | < 3.00 | < 3.00 | 4.64 | 
N=C(N)Nc1ccc(CN)cc1 [ST 275] | < 3.00 | < 3.00 | < 3.00 | < 3.00 | < 3.00 | 
CC(=O)Nc1ncc(S(=O)(=O)NCc2ccc(NC(=N)N)cc2)s1 [ST 282] | < 3.00 | < 3.00 | < 3.00 | < 3.00 | 3.62 | 
N=C(N)Nc1ccc(CNC(=O)NC23C[C@H]4C[C@@H](C2)C[C@@H](C3)C4)cc1 [ST 293] | < 3.00 | < 3.00 | 3.22 | 4.34 | 5.62 | uPA inhibition, result in words [7]: particularly effective and selective inhibitors; pKi ([7]; read-out: Ki value for uPA): < 3.00
CC(C)(C)OC(=O)NCC(=O)NCc1ccc(NC(=N)N)cc1 [ST 294] | < 3.00 | < 3.00 | < 3.00 | < 3.00 | 4.43 | 
CC(=O)Nc1ccc(S(=O)(=O)NCC(=O)NCc2ccc(NC(=N)N)cc2)cc1 [ST 296] | < 3.00 | < 3.00 | < 3.00 | 4.38 | 4.66 | 
CC(C)c1cc(C(C)C)c(S(=O)(=O)NCC(=O)NCc2ccc(NC(=N)N)cc2)c(C(C)C)c1 [ST 298] | < 3.00 | < 3.00 | < 3.00 | 4.43 | 4.38 | 
N=C(N)Nc1ccc(CNC(=O)Nc2ccccc2)cc1 [ST 301] | 3.48 | 3.77 | < 3.00 | < 3.00 | 4.54 | 
N=C(N)Nc1ccc(CNC(=O)OCc2ccc([N+](=O)[O-])cc2)cc1 [ST 311] | < 3.00 |  | < 3.00 | 3.70 | 4.92 | 
CC(C)(c1ccc(OC(=O)NCc2ccc(NC(=N)N)cc2)cc1)c1ccc(OC(=O)NCc2ccc(NC(=N)N)cc2)cc1 [ST 312] |  |  |  |  |  | pKi [3]: < 3.00; pKi [5]: < 3.00; pKi [6, 14]: 4.00; uPA inhibition, result in words [7]: particularly effective and selective inhibitors; pKi [7, 15]: 5.55; pKi ([7]; Ki value for uPA): < 3.00
COc1cc(COC(=O)NCc2ccc(NC(=N)N)cc2)c([N+](=O)[O-])cc1OC [ST 313] | < 3.00 |  | < 3.00 |  | 4.46 | 
N=C(N)Nc1ccc(CNC(=O)Oc2ccc(/N=N/c3ccccc3)cc2)cc1 [ST 315] |  |  |  |  |  | pKi [3]: < 3.00; pKi [5]: < 3.00; pKi [6, 14]: 3.70; pKi [7, 15]: 4.96; pKi ([7]; Ki value for uPA): < 3.00
N=C(N)NC(=O)c1nc(Cl)c(N)nc1N [amiloride] |  |  |  |  |  | formation of lung metastases [8]: prevents the formation of lung metastases
N=C(N)c1ccc(N)cc1 [p-Aminobenzamidine] |  |  |  |  |  | growth rate of DU145 tumors [9]: distinct decrease in the growth rate; side effects [9]: negligible
